The text below walks through data of patent EP4796530A1 (Biocells (Beijing) Biotech Co., Ltd., priority 2023, dated 2025).

Data set [1] in a line: Mouse pharmacokinetics after intravenous administration (plasma and brain, LC-MS). The data set is classed as in vivo. As to conditions: C57 mice, intravenous 5 mg/kg; for concentration at 120 min: brain after cardiac perfusion, read-out: brain drug concentration at 120 min; for half-life / AUC: plasma; for AUC: read-out: area under the curve (AUC) from 1 to 120 min.
Data set [2] has as its target T1, NLRP3 (Mus musculus, UniProt Q8R4B8). As to the kind of experiment: MSU-induced mouse peritonitis model: IL-1β in ascites. The data set is classed as in vivo, C57BL/6J female mice. On the set-up: tissue National Institutes for Food and Drug Control; host or cells: C57BL/6J mice in vivo (serum IL-1β in A7, ascites IL-1β in A8). As to conditions: oral gavage; LPS 2 h later, MSU after another 2 h, ascites 30 min later.
Description: Intraperitoneal injection of LPS and monosodium urate crystals (MSU) in mice can induce the activation of NLRP3 and release of large amounts of IL-1β. […] LPS was purchased from Sigma, Cat. No. L2654. MSU was purchased from Bide Pharmatech Co., Ltd., Cat. No. BD367417. C57BL/6J female mice aged 8 weeks were purchased from National Institutes for Food and Drug Control.
The mice were administered the example compounds via oral gavage. […] Ascites was collected 30 min later, and then IL-1β protein detection was performed on the ascites.
Experimental groups: a model group, and an example compound dosing group.

The nature of data set [3]: Rat plasma pharmacokinetics after intravenous administration (LC-MS). The conditions noted are these: SD rats, intravenous 2.5 mg/kg; for AUC: read-out: AUC from 1 to 1440 min. Type of data set: in vivo. How it is done: SD rats were administered intravenously, at a dosage concentration of 2.5 mg/kg in each group. Blood was collected at the time points of 1 min, 30 min, 1 h, 2 h, 4 h, 6 h, and 24 h. The collected blood was centrifuged at 3000 rpm for 10 min at 4 °C to obtain plasma. Acetonitrile was added at a 1:3 volume ratio of plasma: acetonitrile to precipitate proteins. After centrifugation, the supernatant was collected and filtered. The concentration of the compound was detected using LC-MS (Agilent 1260-G6125, SIM mode).
Experimental groups: a vehicle control group, and a dosing group.

Data set [4] concerns the target T1, NLRP3. Nature of the data set: Inhibition curves (IC50) of canonical NLRP3 activation in J774A.1 cells, IL-1β release. Type of data set: cell-based. On the set-up: The mouse macrophage cell line J774A.1 was used, and LPS was used as the first signal; host or cells: J774A.1 mouse monocyte-macrophage cell line. The conditions noted are these: J774A.1 cell LPS+ATP activation model. How it is done: J774A.1 cells were plated in a 48-well plate at a density of 1.0×10^6 cells/mL, with 300 µL per well. Subsequently, NLRP3 was activated by LPS+ATP or LPS+Nig. […] ATP was purchased from Sigma, Cat. No.: L2654. Nig was purchased from Shanghai Yuanye Bio-Technology Co., Ltd., Cat. No.: S45490.
Experimental groups: a negative control group, an LPS-alone incubation control group, an LPS+ATP/Nig positive control group, and an example compound experimental group with different concentrations.
After the plated J774A.1 cells adhering to the plate, the culture medium was replaced. For all the groups except the negative control group, the culture medium was completely replaced with cell culture medium containing 1 µg/mL LPS. The negative control group received cell culture medium. Then, all the groups were incubated overnight. 18 h later, the culture medium was replaced again. The culture medium of the example compound experimental group was completely replaced with culture medium containing different concentrations of compounds; while the negative control group, the LPS-alone incubation control group, and the LPS+ATP/Nig positive control group received cell culture medium. 1 h later, the culture mediums of the LPS+ATP/Nig positive control group and the example compound experimental group with different concentrations were completely replaced with cell culture medium containing 5 mM ATP or 10 µM Nig. 1 h later, the cell supernatants were collected for IL-1β detection.
Therefore, the relative change in the amount of IL-1β release may directly reflect NLRP3 inhibitory effect. The inhibitory effect of the compounds varies with different concentrations, and based on this, an inhibition curve can be constructed, and the inhibitory effects of the compounds were assessed by IC50.

In data set [5] the target is T1, NLRP3. Nature of the data set: Inhibition of APOE peptide-induced NLRP3 activation in J774A.1 cells, IL-1β release. The data set is classed as cell-based. Set-up: The mouse macrophage cell line J774A.1 was used, and LPS was used as the first signal; host or cells: J774A.1 mouse monocyte-macrophage cell line. As to conditions: J774.A1, 10 µM compound, 30 µg/mL APOE peptide. How it is done: J774A.1 cells were plated in a 48-well plate at a density of 1.0×10^6 cells/mL, with 300 µL per well. Subsequently, NLRP3 was activated by APOE peptide. The cell culture medium comprises: DMEM (brand: Gibco, Cat. No.: C12430500) + 10% fetal bovine serum (brand: Gibco, Cat. No.: 10099-141) + 1% sodium pyruvate (brand: Gibco, Cat. No.: 11360-070) + 1% penicillin-streptomycin solution (brand: Solarbio, Cat. No.: P1400). The J774A.1 mouse monocyte-macrophage cell line was purchased from the Cell Resource Center of the Institute of Basic Medical Sciences of Chinese Academy of Medical Sciences (Resource No. 1101MOU-PUMC000222). APOE2/3 peptide 1-151 was obtained through recombinant protein expression and purification by Biocells (Beijing) Biotech Co., Ltd. The procedures were as follows: the sequence (SEQ ID NO: 1) shown below was inserted into the pET-28A plasmid and transformed into BL-21(DE3) expression strain; the expression of target protein was induced with IPTG at a low temperature; after collecting the bacteria via centrifugation, ultrasonic disruption was performed; and after centrifugation, the supernatant was purified by nickel ion affinity chromatography (AKTA pure), and then the product was concentrated by ultrafiltration and identified by BCA+protein electrophoresis. Sequence: [formula]
Experimental groups: a negative control group, an APOE treatment control group, and an example compound experimental group.
After the plated J774A.1 cells adhering to the plate, the culture medium was replaced. The culture medium of the APOE treatment control group was replaced with cell culture medium containing 30 µg/mL APOE peptide, the culture medium of the example compound experimental group was replaced with culture medium containing 30 µg/mL APOE peptide combined with the compounds, and the negative control group received cell culture medium. Then, all the groups were incubated overnight. 18 h later, the cell supernatants were collected for IL-1β detection.
Activation of NLRP3 by APOE peptide will result in release of mature IL-1β, and the release can be inhibited by NLRP3 inhibitors. Therefore, the relative change in the amount of IL-1β release may directly reflect NLRP3 inhibitory effect.
In this experimental example, effective inhibition refers to a reduction of 70% or more in the release amount, compared with the release amount of the positive control minus the negative control.

Molecules are shown by their SMILES. Bounds are passed on as bounds.

T1 sequence (Q8R4B8 whole entry): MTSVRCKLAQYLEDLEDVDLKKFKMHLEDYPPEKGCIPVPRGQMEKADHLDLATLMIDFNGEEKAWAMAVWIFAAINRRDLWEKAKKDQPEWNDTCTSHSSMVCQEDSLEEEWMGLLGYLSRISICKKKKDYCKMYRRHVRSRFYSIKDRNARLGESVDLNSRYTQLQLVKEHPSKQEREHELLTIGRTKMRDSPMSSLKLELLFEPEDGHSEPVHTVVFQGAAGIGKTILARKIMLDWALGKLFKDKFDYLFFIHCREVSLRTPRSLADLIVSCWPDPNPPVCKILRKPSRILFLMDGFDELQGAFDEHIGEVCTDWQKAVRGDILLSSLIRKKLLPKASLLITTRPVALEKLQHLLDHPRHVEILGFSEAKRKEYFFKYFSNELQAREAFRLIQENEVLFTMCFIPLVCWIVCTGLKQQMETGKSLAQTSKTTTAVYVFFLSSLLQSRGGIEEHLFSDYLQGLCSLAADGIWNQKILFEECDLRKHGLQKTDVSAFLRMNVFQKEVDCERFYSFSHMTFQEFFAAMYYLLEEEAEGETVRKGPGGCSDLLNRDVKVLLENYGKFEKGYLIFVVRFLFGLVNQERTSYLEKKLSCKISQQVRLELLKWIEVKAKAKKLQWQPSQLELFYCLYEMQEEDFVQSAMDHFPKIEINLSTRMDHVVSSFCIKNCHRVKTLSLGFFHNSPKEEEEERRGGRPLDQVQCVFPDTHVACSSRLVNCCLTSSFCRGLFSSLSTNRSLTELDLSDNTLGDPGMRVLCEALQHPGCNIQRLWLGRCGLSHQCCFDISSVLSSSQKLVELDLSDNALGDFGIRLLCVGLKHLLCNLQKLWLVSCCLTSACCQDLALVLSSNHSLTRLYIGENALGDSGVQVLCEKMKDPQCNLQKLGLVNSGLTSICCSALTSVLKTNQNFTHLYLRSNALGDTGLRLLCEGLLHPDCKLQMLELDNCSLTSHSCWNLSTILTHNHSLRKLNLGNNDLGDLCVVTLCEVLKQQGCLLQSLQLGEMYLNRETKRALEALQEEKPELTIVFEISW

For `CN(C)Cc1cccc(S(=O)(=O)NC(=O)Nc2c3c(cc4c2CCC4)CCC3)c1N` [Example 19, 2-amino-3-((dimethylamino)methyl)-N-((1,2,3,5,6,7-hexahydro-s-indacen-4-yl)carbamoyl)benzenesulfonamide], in data set [1], the concentration at 120 min came out at 242 ng/mL; the half-life (commonly how long it takes for the measured level to halve) came to 2.32 h; the area under the curve (AUC) (as a rule, concentration integrated over time) is 14700 ng·h/mL. The “level of IL-1β in ascites compared with the model group” value at NLRP3 [2] is “significantly inhibited”. Moreover, in data set [3], the half-life turned out to be 3.85 h and the AUC came out at 56500 ng·h/mL. At NLRP3 [4], it took 114 nM to reach half-maximal inhibition (IC50). Further, the inhibition (as a rule, the relative decrease from the control value, in per cent) at 10 µM at NLRP3 [5] is at least 70%.

Regarding `CN(C)Cc1cc(S(=O)(=O)NC(=O)Nc2c3c(cc4c2CCC4)CCC3)ccc1O` [Example 5, 3-((dimethylamino)methyl)-N-((1,2,3,5,6,7-hexahydro-s-indacen-4-yl)carbamoyl)-4-hydroxybenzenesulfonamide], in data set [1], the concentration at 120 min came to 3870 ng/mL, the half-life turned out to be 2.3 h and the exposure (AUC) worked out at 67400 ng·h/mL. Also, in data set [3], the half-life came out at 1.93 h and the exposure (AUC) was determined as 33900 ng·h/mL. The IC50 (commonly the concentration that gives 50% inhibition) against NLRP3 [4] came out at 224 nM. Further, the inhibition at 10 µM against NLRP3 [5] is at least 70%.

Take `COc1ccc(S(=O)(=O)NC(=O)Nc2c3c(cc4c2CCC4)CCC3)cc1CN(C)C` [Example 3, 3-((dimethylamino)methyl)-N-((1,2,3,5,6,7-hexahydro-s-indacen-4-yl)carbamoyl)-4-methoxybenzenesulfonamide]: in data set [1], the concentration at 120 min amounted to 35500 ng/mL, the half-life was found to be 1.05 h and the AUC worked out at 257000 ng·h/mL. This molecule came in with a concentration for half-maximal inhibition (IC50) on NLRP3 [4] of 203 nM. For the same molecule, on NLRP3 [5], the inhibition at 10 µM is at least 70%.
